According to PMC9374744, “Structural basis for receptor selectivity and inverse agonism in S1P5 receptors” (Nature Communications, 2022):

Molecular target: T1, S1P5 (Homo sapiens, UniProt Q9H228, G231K/G234L/INS226[…]/INS240[…]/P227A/P230V/R224A/R225D/R229Q/R239A/S237M/T232D/T236K/T238R)
T1 construct: The C-terminus was truncated after Val321; hemagglutinin signal peptide (HA; […]) (N); FLAG-tag (N); Ala-Gly-Arg-Ala linker (N); PreScission cleavage site (C); 10× His tag (C, cleaved yes); made in house; host or cells: Sf9 insect cells (baculovirus, Bac-to-Bac)
Experiment: Microscale fluorescent (CPM) thermal stability assay
Type: binding
Conditions: CPM fluorescence thermal shift; purified S1P5 crystallization construct
Description: Cells were thawed and lysed by repetitive washes (Dounce homogenization on ice, and centrifugation at 128,600×g for 30 min at 4 °C) in hypotonic buffer (10 mM HEPES pH 7.5, 20 mM KCl, and 10 mM MgCl2) and high osmotic buffer (10 mM HEPES pH 7.5, 20 mM KCl, 10 mM MgCl2, and 1 M NaCl) with an addition of protease inhibitor cocktail [PIC; 500 µM 4-(2-aminoethyl)benzenesulfonyl fluoride hydrochloride (Gold Biotechnology), 1 µM E-64 (Cayman Chemical), 1 µM leupeptin (Cayman Chemical), 150 nM aprotinin (A.G. Scientific)] with the ratio of 50 μl per 100 ml of lysis buffer. […] Stability and stabilizing effect of the ligand were measured by microscale fluorescent thermal stability assay[55] […]
Microscale fluorescent thermal stability assay[55] was conducted using a CPM dye (7-Diethylamino-3-(4-maleimidophenyl)-4-methylcoumarin, Invitrogen) dissolved in DMF at 10 mM. […] 1 µg of the target protein was added to 50 µL of working buffer (25 mM HEPES, 250 mM NaCl, 10%v/v glycerol, 0.05%w/v DDM, 0.01%w/v CHS) with CPM, and the melting curve was recorded on a Rotor-Gene Q real-time PCR cycler (Qiagen) using a temperature ramp from 28 to 98 °С with 2 °С/min rate. The fluorescence signal was measured in the Blue channel (excitation 365 nm, emission 460 nm), and the melting temperature was calculated as the maximum of the fluorescence signal derivative with respect to temperature.

T1 sequence (Q9H228 other isoform, or with tags, fused parts or gaps with the stated changes): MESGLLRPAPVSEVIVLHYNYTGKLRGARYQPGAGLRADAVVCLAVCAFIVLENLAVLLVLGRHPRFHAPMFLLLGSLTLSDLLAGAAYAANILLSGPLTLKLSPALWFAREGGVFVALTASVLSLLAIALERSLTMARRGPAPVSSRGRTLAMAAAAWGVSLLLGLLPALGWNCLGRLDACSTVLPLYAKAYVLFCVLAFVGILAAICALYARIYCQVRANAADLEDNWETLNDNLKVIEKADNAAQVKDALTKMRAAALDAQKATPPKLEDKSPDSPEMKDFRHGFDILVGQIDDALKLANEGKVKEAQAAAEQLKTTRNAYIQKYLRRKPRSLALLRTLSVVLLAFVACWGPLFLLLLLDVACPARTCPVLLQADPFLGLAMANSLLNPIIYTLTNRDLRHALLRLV

O=C(O)CCCN1CCc2cccc(OCCc3cccc4ccccc34)c2CC1 [ONO-5430608, 4-{6-[2-(1-naphthyl)ethoxy]-1,2,4,5-tetrahydro-3H-3-benzazepin-3-yl} butanoic acid]
increase of the thermal stability of S1P5: 19 °C
